Results on five molecules are retold here after patent US11369586B2, “Antifungal peptoids” (MIDDLE TENNESSEE STATE UNIVERSITY, priority 2018, dated 2022).

In general, MIC refers to the smallest concentration in the dilution series that meets the test's criterion for growth inhibition.

Data set [1] deals with HepG2 hepatocarcinoma cells. The data set can be described thus: Mammalian cytotoxicity testing (MTT), HepG2. The data set is classed as cell-based. The following applies: for toxicity dose 50% (TD50), HepG2: sarcosine scan. The procedure: (§1) NIH/3T3 mouse fibroblasts and HepG2 hepatocarcinoma cells, cells were grown in DMEM containing 10% FBS at 37° C. and 5% CO2 atmosphere. For cytotoxicity testing, cells were seeded into 96-well plates in phenol red free DMEM containing 10% FBS and incubated for 2 hours to allow cell attachment. Cells were then treated with varying concentrations of peptoid or vehicle control. After 72 hours incubation, 3-(4,5-dimethylthiazol-2-yl)-2,5-diphenyltetrazolium bromide (MTT; 20 μL; 5 mg/mL) was added to each well and the plate incubated for 3.5 hours. Media was removed from each well and 100 μL of DMSO was added and the plate incubated at 37° C. for 10 minutes. The absorbance at 570 nm was then read on a spectrophotometer, percent inhibition determined, and TD50 calculated using GraFit. All triplicate assays were repeated twice on different days.

Data set [2] relates to C. neoformans H99S (serotype A lab strain). The data set can be described thus: Minimum inhibitory concentration (MIC) testing, CLSI broth dilution, PrestoBlue viability. The format is cell-based, Cryptococcus neoformans. As for the experimental part: The minimum inhibitory concentration (MIC) was determined against C. neoformans H99S (serotype A lab strain) as previously described. (Corson, et al. ACS Med. Chem. Lett. 2016, 7(12).) All MIC assays were carried out following CLSI guidelines. (CLSI. Reference method for broth dilution antifungal susceptibility testing of yeasts; approved standard-third edition; CLSI document M27-A3; Clinical and Laboratory Standards Institute: Wayne, Pa.) Briefly, the organism to be tested was streaked from frozen stock for isolation and incubated for 96 hours. A 5 mL solution of 0.85% saline was inoculated with 1-2 colonies of the organism of interest, and the inoculated solution was vortexed for one minute. The optical density at 530 nanometers (nm) was acquired on a spectrophotometer and adjusted through addition of saline or cells to obtain an OD530nm of 0.15 to 0.25. A 1:100 solution of Roswell Park Memorial Institute (RPMI) media containing 3-morpholinopropane sulfonic acid (MOPS; 0.1 M) and cells was made by adding 0.100 mL of saline inoculated with cells to 9.9 mL of RMPI. The solution was vortexed and used to make a 1:20 solution by adding and vortexing 0.5 mL of the 1:100 solution to 9.5 mL of RPMI+0.1 M MOPS. (This was repeated twice to make a total of 20 mL of 1:20 RPMI+ cells.)
Two-fold serial dilutions of peptoid were prepared in water at 100 times the concentration to be tested. In a 96-well plate, 198 μL of 1:20 RPMI+cells was placed in each well followed by 2 μL of 100-times compound or vehicle control in triplicate. The plate was incubated at 35° C. for 72 hours. For viability analysis, 20 μL of PrestoBlue was added to each well, the plate incubated for 8 hours, and the fluorescent intensity of each well measured (Ex. 555 nm; Em. 585 nm). All triplicate assays were repeated twice on different days.
In general terms: Dilution methods test growth across graded concentrations, often in twofold steps.

The conditions of data set [3]: Corson et al. 2016; cited from earlier work.
The test system of data set [4] is NIH/3T3 mouse fibroblasts. The experiment in a line: Mammalian cytotoxicity testing (MTT), NIH/3T3. The data set is classed as cell-based. As for the experimental part: as §1, with “For” for “NIH/3T3 mouse fibroblasts and HepG2 hepatocarcinoma cells, cells were grown in DMEM containing 10% FBS at 37° C. and 5% CO2 atmosphere. For”
Data set [5] concerns human red blood cells (hRBCs). The experiment in a line: Hemolytic activity against human red blood cells. The data set is classed as cell-based. The following applies: human erythrocytes, HC10. The procedure:
The hemolytic activity of peptoids against human red blood cells (hRBCs) was done as previously described. (Murugan et al. Bioorg. Med. Chem. Lett. 2013, 23(16), 4633-4636.) Briefly, hRBCs were washed 3× with PBS (11.8 mM phosphate; 140.4 mM NaCl; pH 7.4) by centrifugation (10 minutes at 1000×g). Cells were resuspended in PBS and 100 μL aliquots placed into individual wells of a 96-well plate. Peptoid solutions (2-fold serial dilution in PBS; 400-3.13 μg/mL final) were added to the wells. A negative control was prepared by adding PBS with no peptoid to the hRBCs and a positive control was prepared by adding 1% Triton X-100 to the hRBCs. The plate was incubated at 37° C. for 1 hour, centrifuged at 1000×g for 10 minutes, and 5 μL of supernatant transferred into 95 μL of PBS in a new 96-well plate. Released hemoglobin was measured by reading the absorbance at 405 nm on a spectrophotometer. All triplicate assays were repeated twice on different days. Percent hemolysis was calculated as follows:
[formula] The Hill Slope (H) and HC50 was determined using GraFit and HC10 was calculated from HC50 using the following equation: HC10=HC50[10%/(100%−10%)]^1/H NMR Analysis

The mark [6] stands for this setting: C. neoformans MIC, relative to AEC5.

Regarding `CNCC(=O)N(CCCCN)CC(=O)N(CC(N)=O)Cc1ccco1` [AEC5sar1], the “toxicity dose 50% (TD50), HepG2” value in data set [1] is more than 800 m/mL. In addition, the “antifungal potency (MIC), above highest concentration tested” value in data set [2] (sarcosine scan) is reported as more than 400 m/mL.
For the molecule `CCCCCCCCCCCCCNCC(=O)N(CCCCN)CC(=O)N(CC(N)=O)Cc1ccco1` [AEC5, reference compound], in data set [1] (72 hours incubation, MTT), the “TD50 against HepG2 liver cells” value was 56.2 µg/mL. For the same molecule, the “toxicity dose 50% (TD50), HepG2” value in data set [1] came out at 56.2 m/mL. Moreover, the “in vitro proteolytic stability” value in data set [3] was “excellent”.
As for `CCCCCCCCCCCCCNCC(=O)N(CCCCN)CC(=O)N(C)CC(N)=O` [AEC5sar3], in data set [1] (HepG2), the “change of mammalian cell toxicity compared to AEC5” value was “little effect on mammalian toxicity”. Also, the “fold decrease in antifungal potency compared to AEC5” value in data set [2] (setting [6]) came out at 8 fold.
On to `CCCCCCCCCCCCCNCC(=O)N(C)CC(=O)N(CC(N)=O)Cc1ccco1` [AEC5sar2], for which the “fold change of toxicity dose 50% (TD50) compared to AEC5” value in data set [1] (HepG2, relative to AEC5, printed as increased) is recorded as 2 fold. Further, the “toxicity dose 50% (TD50), HepG2” value in data set [1] stood at 21.1 m/mL. The “fold decrease in antifungal potency compared to AEC5” value in data set [2] (setting [6]) is 2 fold.
With `CCCCCCCCCCCCCNCC(=O)N(CCCCN)CC(=O)N(CC(N)=O)Cc1cccs1` [γ-2], in data set [1] (HepG2 TD50 and C. neoformans MIC), the “selectivity ratio (TD50/MIC)” value amounted to 25.3. Moreover, the “fold improvement in antifungal potency compared to AEC5” value in data set [2] (setting [6]) worked out at 2 fold. The MIC in data set [2] (Cryptococcus neoformans, read-out: MIC against C. neoformans) is less than 3.5 µg/mL. Moreover, the “toxicity towards NIH/3T3 mouse fibroblasts compared to AEC5” value in data set [4] was “decreased toxicity”. For the same molecule, the “selectivity ratio, NIH/3T3 mouse fibroblasts” value in data set [4] (NIH/3T3 toxicity and C. neoformans MIC) amounted to 21. Besides, the “level of hemolysis compared to AEC5” value in data set [5] is “slightly higher levels of hemolysis”.
